Structures can show the parent of a compound that is named as a salt. Where two headings read alike, the source gives them in different places.
Key:
[1] = pKa determination by potentiometric titration; type: physicochemical; settings: for pKa: aqueous solution, experimental, potentiometric titration
Description: In addition, we tested the amino alcohol fragments of these compounds to carefully monitor the influence of individual protonated nitrogen atoms on the obtained pKa values (Figure 4). […] Based on a previously modified potentiometric procedure,[27],[28] a series of titrations were performed, and the pKa values were determined using the Kostrowicki and Liwo algorithm.[29],[30] […] That explains the surprising result of free base crystallization attempts where iodide salt was obtained instead of the neutral form. On the other hand, in the same environment, KSK94 exists in two forms: the monoprotonated form [HL^+] (20.56%) and the free ligand [L] (77.72%, Figure 5). […] KSK68 can be characterized as a basic ligand with pKa1 = 4.9 (pyridine N) and pKa2 = 8.4 (piperidine N). The pKa values are consistent with those determined by the same procedure for the corresponding amino alcohol 3-(4-(pyridin-4-yl)piperidin-1-yl)propan-1-ol (Figure 4). […] A similarly low pKa2 value for the N7 piperazine nitrogen atom was also determined for the corresponding amino alcohol 3-(4-(pyridin-4-yl)piperazin-1-yl)propan-1-ol (Figure 4), which is in agreement with the value obtained for 1-phenyl-4-methyl piperazine reported in the literature.[31] […] The lowest value was determined for 4-nitrophenyl, and the highest was for 2-methylphenyl derivatives.[32]
The potentiometric microtitration was performed in a thermostated 20 mL cell using a CerkoLab microtitration unit fitted with a pH electrode (Hydromet ERH-13-6). The electrode was calibrated with the use of buffer solutions: pH = 4.00, 7.00, and 10.00. Titrant T (0.1 M KOH) was standardized according to the general analytical procedure and protected from carbon dioxide. Double distilled water with a conductivity of about 0.18 mS/cm was used to prepare all aqueous solutions. DMSO (HPLC grade, 99.5%) was supplied by Sigma Aldrich. The concentration of the titrant solution (D) was 0.0025–0.005 M. The solubilization procedure was follows: The appropriate amount of KSK compound was dissolved in 1 mL 0.1 M HCl and 1 mL DMSO to prepare a 25 mL stock solution. The developed solubilization system can be recommended for poorly soluble derivatives. The analytical procedure was a follows: volume V0 = 4.5 mL of titrant D was titrated with 0.1 M titrant T using the CerkoLab System equipped with a 5 mL syringe pump.

[2] = biological target: T1, human recombinant histamine H3R (Homo sapiens, UniProt Q9Y5N1); assay: hH3R radioligand binding ([3H]Nα-methylhistamine depletion assay); settings: read-out: hH3R Ki [nM] x̄ [CI 95%]; mean [CI 95%]; HEK-293 cells
T1 construct: expressed in transfected cells
T1 sequence (Q9Y5N1 whole entry): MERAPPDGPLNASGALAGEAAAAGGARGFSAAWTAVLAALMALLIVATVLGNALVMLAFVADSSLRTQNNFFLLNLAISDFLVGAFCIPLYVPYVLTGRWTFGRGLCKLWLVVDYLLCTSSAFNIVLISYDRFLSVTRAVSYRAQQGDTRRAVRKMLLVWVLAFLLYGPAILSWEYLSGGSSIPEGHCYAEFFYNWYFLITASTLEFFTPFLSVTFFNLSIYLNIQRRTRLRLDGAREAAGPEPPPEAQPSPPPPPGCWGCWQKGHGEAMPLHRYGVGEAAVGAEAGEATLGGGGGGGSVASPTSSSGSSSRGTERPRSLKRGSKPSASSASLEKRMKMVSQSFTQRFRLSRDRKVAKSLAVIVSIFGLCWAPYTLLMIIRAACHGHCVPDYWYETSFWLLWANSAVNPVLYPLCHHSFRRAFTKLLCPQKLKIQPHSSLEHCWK

sigma-1 receptor (σ1R) [3] = biological target: T2, sigma-1 receptor (σ1R) (Cavia porcellus, UniProt Q60492); assay: σ1R radioligand binding ([3H](+)-pentazocine); set-up: species or system guinea pig; settings: read-out: σ1R Ki [nM] x̄ [CI 95%]; mean [CI 95%]
T2 construct: The thawed membrane preparation of the guinea pig brain cortex was incubated; from tissue; host or cells: male Dunkin-Hartley guinea pig brain cortex membranes
T2 sequence (Q60492 whole entry): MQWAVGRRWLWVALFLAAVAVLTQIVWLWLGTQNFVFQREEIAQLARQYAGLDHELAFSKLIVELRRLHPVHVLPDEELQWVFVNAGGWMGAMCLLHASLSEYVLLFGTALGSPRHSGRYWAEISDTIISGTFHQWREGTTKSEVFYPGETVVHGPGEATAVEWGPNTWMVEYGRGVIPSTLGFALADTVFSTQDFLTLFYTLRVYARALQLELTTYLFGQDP

sigma-1 receptor (σ1R) [4] = assay: σ1R radioligand binding ([3H](+)-pentazocine); set-up: species or system guinea pig; settings: ratio of σ2R Ki to σ1R Ki
sigma-2 receptor (σ2R) = biological target: T3, sigma-2 receptor (σ2R) (Rattus norvegicus, UniProt Q5U3Y7); assay: σ2R radioligand binding ([3H]DTG); settings: read-out: σ2R Ki [nM] x̄ [CI 95%]; mean [CI 95%]
T3 construct: The thawed membrane preparation of rat liver was incubated; from tissue; host or cells: Sprague-Dawley rat liver membranes
T3 sequence (Q5U3Y7 1-176): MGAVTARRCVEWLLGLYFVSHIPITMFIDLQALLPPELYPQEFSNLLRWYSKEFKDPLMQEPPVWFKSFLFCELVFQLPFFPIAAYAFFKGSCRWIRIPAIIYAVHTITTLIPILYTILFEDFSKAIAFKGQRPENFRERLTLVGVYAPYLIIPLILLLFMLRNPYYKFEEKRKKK

mice = assay: loperamide-induced antinociception (paw pressure, struggle response latency); type: in vivo, Female CD1 mice; settings: for reversal of potentiation of loperamide-induced antinociception by S1RA and 12: PRE-084 75 μg i.pl., naloxone-methiodide 2 mg/kg s.c.
[5] = parallel artificial membrane permeability assay (PAMPA); type: in vitro ADME; settings: 100 μM in PBS pH 7.4, RT, read-out: Pe (permeability coefficient)
[6] = Figure 5, species distribution from titration curves
[7] = aqueous solution at physiological pH

Row | SMILES | Ki [2] | Ki (sigma-1 receptor (σ1R) [3]) | σ2/σ1 ratio (sigma-1 receptor (σ1R) [4]) | Ki (sigma-2 receptor (σ2R)) | also measured
1 | OCCCN1CCN(c2ccncc2)CC1 [3-(4-(pyridin-4-yl)piperazin-1-yl)propan-1-ol, reference compound] |  |  |  |  | pKa ([1]; read-out: pKa1): 6.1; pKa ([1]; read-out: pKa2): 1; pKa ([1]; read-out: pKa3): 8.82
2 | OCCCN1CCC(c2ccncc2)CC1 [3-(4-(pyridin-4-yl)piperidin-1-yl)propan-1-ol, reference compound] |  |  |  |  | pKa ([1]; read-out: pKa1): 4.91; pKa ([1]; read-out: pKa2): 8.84
3 | OCCCN1CCNCC1 [3-(piperazin-1-yl)propan-1-ol, reference compound] |  |  |  |  | pKa ([1]; read-out: pKa1): 4.52; pKa ([1]; read-out: pKa2): 9.14
4 | OCCCN1CCCCC1 [3-(piperidin-1-yl)propan-1-ol, reference compound] |  |  |  |  | pKa ([1]; read-out: pKa): 9.73
5 | CC1CCCN(CCCOc2ccc(-c3ccccc3)cc2)C1 (stereo not drawn) [Compound 1, 1-(3-([1,1′-Biphenyl]-4-yloxy)propyl)-3-methylpiperidine Oxalate] | 31 nM | 1.5 nM | 11.3 | 17 nM | 
6 | CC1CCN(CCCOc2ccc(-c3ccccc3)cc2)CC1 [Compound 2, 1-(3-([1,1′-Biphenyl]-4-yloxy)propyl)-4-methylpiperidine Oxalate] | 10.3 nM | 2.4 nM | 6.7 | 16 nM | 
7 | c1ccc(-c2ccc(OCCCN3CCCC3)cc2)cc1 [Compound 4, 1-(3-([1,1′-Biphenyl]-4-yloxy)propyl)pyrrolidine Oxalate] | 19.5 nM | 24 nM | 2.7 | 65 nM | 
8 | N#Cc1ccc(-c2ccc(OCCCN3CCCCC3)cc2)cc1.O=C(O)C(=O)O [Compound 5, 4′-(3-(Piperidin-1-yl)propoxy)-[1,1′-biphenyl]-4-carbonitrile Oxalate] |  | 28 nM | 1.7 | 47 nM | 
9 | c1ccc(Oc2ccc(OCCCN3CCCCC3)cc2)cc1 [Compound 6, 1-(3-(4-Phenoxyphenoxy)propyl)piperidine Oxalate] | 2.7 nM | 18 nM | 5.7 | 103 nM | 
10 | c1ccc(Cc2ccc(OCCCN3CCCCC3)cc2)cc1 [Compound 8, 1-(3-(4-Benzylphenoxy)propyl)piperidine Oxalate] |  | 5.5 nM | 8.5 | 47 nM | 
11 | c1ccc(-c2ccc(OCCCCN3CCCCC3)cc2)cc1 [Compound 9, 1-(4-([1,1′-Biphenyl]-4-yloxy)butyl)piperidine Oxalate] | 22 nM | 95 nM | 0.3 | 33 nM | 
12 | c1ccc(Oc2ccc(OCCCN3CCC(c4ccncc4)CC3)cc2)cc1 [Compound 13, 4-(1-(3-(4-Phenoxyphenoxy)propyl)piperidin-4-yl)pyridine Oxalate] | 24.2 nM | 5.6 nM | 0.7 | 4 nM | 
13 | c1ccc(Nc2ccc(OCCCN3CCC(c4ccncc4)CC3)cc2)cc1 [Compound 14, N-Phenyl-4-(3-(4-(pyridin-4-yl)piperidin-1-yl)propoxy)aniline Oxalate] | 69 nM | 3.3 nM | 8.8 | 29 nM | 
14 | c1ccc(Cc2ccc(OCCCN3CCC(c4ccncc4)CC3)cc2)cc1 [Compound 15, 4-(1-(3-(4-Benzylphenoxy)propyl)piperidin-4-yl)pyridine Oxalate] | 76.1 nM | 2.8 nM | 3.5 | 9.9 nM | 
15 | CC(C)(C)c1ccc(OCCCCN2CCN(c3cnccn3)CC2)cc1 [Compound 16, 2-(4-(4-(4-(tert-Butyl)phenoxy)butyl)piperazin-1-yl)pyrazine Oxalate] |  | 7.6 nM | 3.6 | 27 nM | 
16 | N#Cc1ccc(-c2ccc(OCCCN3CCN(c4ccncc4)CC3)cc2)cc1 [KSK94] |  |  |  |  | pK of equilibrium H2L+2 = H+ + HL+ [1, 6]: 6.25; pK of equilibrium HL+ = H+ + L0 [1, 6]: 6.65; free ligand [L] [1, 7]: 77.72%; monoprotonated form [HL+] [1, 7]: 20.56%; pKa ([1]; read-out: pKa1): 6.25; pKa ([1]; read-out: pKa2): ~1; pKa ([1]; read-out: pKa3): 6.65
17 | Cl.O=C(OCCN1CCOCC1)C1(c2ccccc2)CCCCC1 [PRE-084, 2-[4-morpholinethyl]1-phenylcyclohexanecarboxylate hydrochloride] |  |  |  |  | reversal of potentiation of loperamide-induced antinociception by S1RA and 12 (mice): markedly reverse the effect of these compounds on loperamide-induced antinociception
18 | CN(C)C(=O)C(CCN1CCC(O)(c2ccc(Cl)cc2)CC1)(c1ccccc1)c1ccccc1 [loperamide] |  |  |  |  | effect of loperamide alone on struggle response latency (mice; 4 mg/kg s.c.): minimal (nonsignificant) increase in the struggle response latency
19 | C=CC[N+]1(C)CC[C@]23c4c5ccc(O)c4O[C@H]2C(=O)CC[C@@]3(O)[C@H]1C5 (stereo partly drawn) [naloxone-methiodide] |  |  |  |  | reversal of potentiation of loperamide-induced antinociception by S1RA and 12 (mice): the effect of S1RA and 12 was also reversed
20 | CCN1CCCC1CNC(=O)c1cc(S(N)(=O)=O)ccc1OC (stereo not drawn) [sulpiride, reference compound] |  |  |  |  | Papp at 5 h, 100 µM [5]: 0.05 ×10⁻⁶ cm/s

Reference: PMC10388327, “Dual Piperidine-Based Histamine H3 and Sigma-1 Receptor Ligands in the Treatment of Nociceptive and Neuropathic Pain” (Journal of Medicinal Chemistry, 2023)
